Data taken from patent US10441663B2, “Methods for treating cancer” (Bicycle Therapeutics Limited, priority 2016, dated 2019).
*1 amine or outer side, *2 acyl side, *3 side chain or, on linkers, in order; H or OH if unused. Where a SMILES comes first, the peptide text is derived from it. Bridges are numbered along the chain shown (N, C = ends). [ ]: non-standard residue; d: D form. The star is where a group is joined. X1 = COc1cc2cc(c1Cl)N(C)C(=O)C[C@H](OC(=O)[C@H](C)N(C)C(=O)CCSSC(C)CCC(=O)*)[C@]1(C)O[C@H]1[C@H](C)[C@@H]1C[C@@](O)(NC(=O)O1)[C@H](OC)/C=C/C=C(\C)C2; 1Nal = N[C@@H](Cc1cccc2ccccc12)C(=O)O; TBMB = c1c(C[*:1])cc(C[*:3])cc1C[*:2]; Tle = CC(C)(C)[C@H](N)C(=O)O; βAla = NCCC(=O)O; Sar = CNCC(=O)O

System: LU-01-0046 non-small-cell lung carcinoma (NSCLC) PDX model
Assay: Efficacy in LU-01-0046 NSCLC PDX model (high MT1-expressing, docetaxel resistant)
Type: in vivo, Balb/C nude mice
Source text: The objective of the project is to evaluate the in vivo therapeutic efficacy of test articles in the LU-01-0046 non-small-cell lung carcinoma (NSCLC) PDX model. LU-01-0046 is a high MT1-expressing NSCLC that is docetaxel resistant.
Each mouse was inoculated subcutaneously at the right flank with certain kind of tumor fragment (30 mm3) for tumor development. The treatments started when the average tumor volume reaches approximately 150-200 mm^3. The test article administration and the animal numbers in each group are shown in Table 40 which details the experimental design.
Treatment was given until the control tumors reached an average of 1000 mm^3.
Before commencement of treatment all animals will be weighed and the tumor volumes will be measured. Since the tumor volume can affect the effectiveness of any given treatment, mice will be assigned into groups using randomized block design based upon their tumor volumes.
The protocol and any amendment(s) or procedures involving the care and use of animals in this study will be reviewed and approved prior to conduct. […] At the time of routine monitoring, the animals will be checked for any effects of tumor growth and treatments on normal behavior such as mobility, food and water consumption, body weight gain/loss (body weights will be measured twice weekly), eye/hair matting and any other abnormal effect. Death and observed clinical signs will be recorded on the basis of the numbers of animals within each subset.
The major endpoint is to see if the tumor growth can be delayed or mice can be cured. Tumor sizes will be measured twice weekly in two dimensions using a caliper and the volume will be expressed in mm^3 using the formula: V=0.5 a×b^2 where a and b are the long and short diameters of the tumor, respectively. […] T-C is calculated with T as the median time (in days) required for the treatment group tumors to reach a predetermined size (e.g., 1.000 mm^3), and C is the median time (in days) for the control group tumors to reach the same size. […]
TGI is calculated for each group using the formula. […]

With `COc1cc2cc(c1Cl)N(C)C(=O)C[C@H](OC(=O)[C@H](C)N(C)C(=O)CCSSC(C)CCC(=O)NCCC(=O)N(C)CC(=O)N(C)CC(=O)N(C)CC(=O)N(C)CC(=O)N(C)CC(=O)N(C)CC(=O)N(C)CC(=O)N(C)CC(=O)N(C)CC(=O)N(C)CC(=O)N[C@@H](C)C(=O)N[C@H]1CSCc3cc4cc(c3)CSC[C@H](NC(=O)[C@@H](C)NC(=O)[C@H](Cc3cccc5ccccc35)NC(=O)[C@H](CCC(=O)O)NC(=O)[C@H](CC(N)=O)NC(=O)[C@@H](C)NC1=O)C(=O)N[C@@H](CCC(=O)O)C(=O)N[C@@H](CC(=O)O)C(=O)N[C@@H](Cc1ccccc1)C(=O)N[C@@H](Cc1ccc(O)cc1)C(=O)N[C@@H](CC(=O)O)C(=O)N[C@@H](C(C)(C)C)C(=O)N[C@H](C(N)=O)CSC4)[C@]1(C)O[C@H]1[C@H](C)[C@@H]1C[C@@](O)(NC(=O)O1)[C@H](OC)/C=C/C=C(\C)C2` (stereo partly drawn) [BT1718] ({X1-βAla}-[Sar][Sar][Sar][Sar][Sar][Sar][Sar][Sar][Sar][Sar]AC[dA]NE[1Nal][dA]CEDFYD[Tle]C-NH2; linker 12-18-25 via TBMB (inferred)) the tumor response (3 mg/kg biw) was “tumor stasis”, the “relapse after cessation of dosing” value (10 mg/kg biw) was “lack of relapse” and the tumor response (10 mg/kg biw) was “tumor eradication”.
